This note sets out measurements from BindingDB's records for doi:10.1021/jm990397l (University of Groningen, 2000).

Each structure is given as a SMILES string.

For this test, the target named is 5-HT1D receptor (Bos taurus). As to the kind of experiment: Inhibition affinity against 5-HT-1D receptor in bovine caudate nucleus using radio binding assay.

As for `Cc1nc(-c2ccc(-c3ccc(C(=O)Nc4ccc(OS(=O)(=O)C(F)(F)F)c(N5CCN(C)CC5)c4)cc3)c(C)c2)no1` [Trifluoro-methanesulfonic acid 4-{[2'-methyl-4'-(5-methyl-[1,2,4]oxadiazol-3-yl)-biphenyl-4-carbonyl]-amino}-2-(4-methyl-piperazin-1-yl)-phenyl ester], the IC50 (usually the concentration that inhibits the measured activity by half) is more than 1000 nM.
